Experimental data: ChEMBL document CHEMBL1795230, “Conformational variability of different sulfonamide inhibitors with thienyl-acetamido moieties attributes to differential binding in the active site of cytosolic human carbonic anhydrase isoforms” (Bioorg Med Chem, 2011)

What was measured:
Carbonic anhydrase 3 = Carbonic anhydrase 3 (Homo sapiens, UniProt P07451)
Carbonic anhydrase 13 = Carbonic anhydrase 13 (Homo sapiens, UniProt Q8N1Q1)
Carbonic anhydrase 13, sequence (Q8N1Q1 whole entry): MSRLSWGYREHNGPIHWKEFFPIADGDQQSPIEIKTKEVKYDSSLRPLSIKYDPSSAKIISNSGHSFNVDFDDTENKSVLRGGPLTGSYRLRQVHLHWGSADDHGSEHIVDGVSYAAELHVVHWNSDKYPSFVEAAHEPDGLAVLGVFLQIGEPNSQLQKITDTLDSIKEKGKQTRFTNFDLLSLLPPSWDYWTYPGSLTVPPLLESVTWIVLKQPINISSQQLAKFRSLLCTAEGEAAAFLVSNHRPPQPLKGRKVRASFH

Carbonic anhydrase 3, sequence (P07451 whole entry): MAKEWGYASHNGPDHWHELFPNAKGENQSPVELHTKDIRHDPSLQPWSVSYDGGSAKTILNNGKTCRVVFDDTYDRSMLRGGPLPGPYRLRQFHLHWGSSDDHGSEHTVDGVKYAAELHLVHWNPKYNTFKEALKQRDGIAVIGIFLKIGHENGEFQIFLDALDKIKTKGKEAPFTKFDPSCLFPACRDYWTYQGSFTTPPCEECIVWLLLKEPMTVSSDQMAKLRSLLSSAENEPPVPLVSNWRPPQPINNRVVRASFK

Compound: NS(=O)(=O)c1ccc(NC(=O)Cc2cccs2)cc1
- Ki (Carbonic anhydrase 3): 800000 nM
- Ki (Carbonic anhydrase 13): 125 nM

Compound: NS(=O)(=O)c1cc(Cl)c(Cl)c(S(N)(=O)=O)c1 [DICHLORPHENAMIDE]
- Ki (Carbonic anhydrase 13): 23 nM
